Laboratory results: patent US10836795B2, “Dual functional novel peptide having cell permeability and bone tissue regeneration ability, and use thereof” (SEOUL NATIONAL UNIVERSITY R&DB FOUNDATION, priority 2016, dated 2020)
Where a SMILES comes first, the peptide text is derived from it.

Legend:
[1] = tested on: osteocalcin in dental pulp stem cells (DPSCs); assay: Bone differentiation ability: osteocalcin expression by immunofluorescence; assay type: cell-based
Description: In order to identify the bone differentiation ability of the peptide set forth in SEQ ID NO: 4, which was determined to have the best cell penetration function in Example 4, and the copine 7 protein, expression difference of osteocalcin in dental pulp stem cells (DPSCs) was evaluated.
For this purpose, 1×10^5 DPSCs were suspended in 50 μl of a medium (Dulbecco's Modified Eagle's Medium, Gibco, USA) supplemented with 10% FBS (fetal bovine serum) and a 1% antibiotic-antimycotic solution (Thermo Fisher Scientific, USA) in a 24-well plate. The cells were cultured for 24 hours and then treated with the peptide set forth in SEQ ID NO: 4 at concentrations of 200 μM and 500 μM and the copine 7 protein at a concentration of 100 ng/ml, respectively, while replacing the medium with Differentiation basal medium-Osteogenic (Lonza, USA) supplemented with a supplement (hMSC Osteogenic SingleQuots, Lonza, USA) for 18 days. […] Finally, the cells were treated with the nuclei-staining dye (Hoechst 33342, blue) at room temperature for 10 minutes and washed with buffer (PBS), and the expression level of osteocalcin was determined with a confocal scanning microscope (IX 70, Olympus Co, Tokyo, Japan). All values were expressed as mean±SD of fluorescence intensity measured in three different areas and were compared with the control group (no treatment, NT) (*P<0.05).

[2] = tested on: skull of a New Zealand white rabbit; assay: Bone regeneration ability of a peptide-containing bone graft material in a rabbit skull defect; assay type: in vivo; details: 3 weeks after graft
Description: 20 mg and 40 mg of the peptide shown in SEQ ID NO: 4 were dissolved in 100 μL of purified water, and the solution was added to 0.1 g of a bone graft material, allowed to stand at 4° C. for 24 hours and lyophilized. The copine 7 protein was used as a control group in the same manner as above and was incorporated in amounts of 100 μg and 200 μg in 0.1 g of a bone graft material. A defect part with a diameter of 8 mm was formed in the skull of a New Zealand white rabbit (cuniculus) and implanted with 0.1 g of a bone graft material in each defect part. The periosteum and skin were double-sutured. The animal was sacrificed 3 weeks after graft, and the specimen was fixed in a formalin solution and embedded in tissues to obtain a specimen with a thickness of 20 um. The prepared specimen was stained with basic fuchsin and toluidine blue to prepare a non-decalcified sample. The sample was imaged with an optical microscope and analyzed histologically. All values were expressed as mean±SD (SD) of areas measured in three different samples and compared with copine 7 protein (*P<0.05).

[3] = tested on: dental pulp stem cells; assay: Cell permeability of FITC-labeled peptides by confocal microscopy; assay type: cell-based; details: for cell permeation ability / efficiency: 50-1000 μM; for fluorescence expression at highest concentration: 1000 uM
Description: In order to identify the cell permeability of the peptides set forth in SEQ ID NOS: 1 to 6 synthesized in Example 2, fluorescein isothiocyanate (FITC) was attached to the N-terminus of each peptide. Dental pulp stem cells were seeded at a density of 3×10^4 cells into a 4-well chamber and cultured in DMEM medium for 24 hours for cell stabilization. 24 hours later, the cells were treated with the FITC-labeled peptide at various concentrations (50 μM, 100 μM, 200 μM, 500 μM, 1000 μM) for 30 minutes. The cells were treated with 100 ng/ml of copine 7 protein for 30 minutes in order to compare the cell permeability thereof with the peptide. Then, in order to compare the intracellular permeation behaviors of these peptides or the protein, each well was treated with 4% paraformaldehyde, fixed at room temperature for 10 minutes, treated with 0.5% Triton-X 100, and cultured at room temperature for 15 minutes. Then, the cells were blocked with a buffer solution (PBS) containing 3% bovine serum albumin (BSA) for 30 minutes. In the case of copine 7 protein, a CPNE7 primary antibody was diluted at a ratio of 1:100 in a buffer solution (PBS) containing 1% bovine serum albumin and reacted at 4° C. for 16 hours. A fluorescein isothiocyanate (FITC)-conjugated secondary antibody was diluted at a ratio of 1:200 and reacted at room temperature for 1 hour. Finally, the nuclei-staining dye (Hoechst 33342, blue) was treated at room temperature for 10 minutes and washed with a buffer solution (PBS), and the fluorescence intensity thereof was measured using a confocal scanning microscope (IX 70, Olympus Co, Tokyo, Japan) to determine the degree of expression. All values were expressed as mean±SD of the fluorescence intensities measured in three different areas, and were compared with the control group (no treatment, NT) (*P<0.05).

[4] = tested on: dental pulp stem cells; assay: MTT assay, in-vitro cytotoxicity of synthetic peptides; assay type: cell-based; details: 50-2000 μM, 24, 48 and 72 hours
Description: A cell viability test was performed to evaluate the cytotoxicity of the peptides set forth in SEQ ID NOS: 1 to 6 synthesized in Example 2 above. For this purpose, dental pulp stem cells were seeded at a density of 9×10^3 cells per well into each well of a 96-well polystyrene plate in a Dulbecco's Modified Eagle's Medium (Gibco, USA) supplemented with 10% FBS (fetal bovine serum) and a 1% antibiotic-antimycotic solution (Thermo Fisher Scientific, USA), and then cultured for 24 hours. Each well was treated with various concentrations (50 μM, 100 μM, 200 μM, 400 μM, 500 μM, 800 μM, 1000 μM and 2000 μM) of the peptides set forth in SEQ ID NOS: 1 to 6. After 24 hours (1 day), 48 hours (2 days) and 72 hours (3 days), an MTT assay was performed to identify the cytotoxicity of the peptides. For the MTT assay, the medium was removed 24 hours, 48 hours, and 72 hours after treatment with peptide and each well was then treated with a mixture of 180 μl of a DMEM medium and 20 μl of a MTT solution, followed by further culturing for 1 hour. One hour later, the mixed solution was removed, each well was treated with 200 μl of dimethyl sulfoxide (DMSO) and the mixed solution was then transferred into a new 96-well plate and the cytotoxicity thereof was measured. All values were expressed as mean±standard deviation (SD) for triplicate experiments and the measured values are shown in FIG. 3.

[5] = FITC-labeled peptide, 30 minutes, FIG. 4

Compound	cell permeation ability / efficiency [3, 5]	fluorescence expression at highest concentration [3, 5]	cytotoxicity (MTT assay) [4]	further results
VNPKYKQKRR (Dual functional peptide for cell penetration and bone tissue regeneration) [SEQ ID NO: 4, peptide from copine 7 protein, position 341-350]	best cell permeation efficiency			expression degree of osteocalcin as fluorescence intensity ([1]; 200 μM and 500 μM peptide versus 100 ng/ml group, 18 days, FIG. 6): relatively stronger fluorescence intensity; bone differentiation ability compared with copine 7 protein ([1]; DPSCs, 18 days in osteogenic medium): superior to the copine 7 protein; effect of regenerating new bone at the skull defect part ([2]; bone graft material with 20 mg or 40 mg peptide versus 100 μg or 200 μg copine 7 protein, FIG. 7A): excellent effect of regenerating new bone; bone regeneration area (histomorphometric analysis) ([2]; versus copine 7 protein, FIG. 7B): significantly wider bone regeneration area than the copine 7 protein; fluorescence at 100 μM ([3]; FITC-labeled peptide, 100 μM, 30 minutes, FIG. 4): had fluorescence; cell permeability compared with copine 7 protein (confocal microscope) ([3]; versus 100 ng/ml copine 7 protein, 30 minutes, FIG. 5A): better cell permeability than the copine 7 protein; quantified fluorescence intensity compared with copine 7 protein ([3]; versus 100 ng/ml copine 7 protein, FIG. 5B): strong fluorescence intensity compared to the copine 7 protein
STTFEEMQKA (Dual functional candidate peptide for cell penetration and bone tissue regeneration) [SEQ ID NO: 1, peptide from copine 7 protein, position 321-330]	no cell permeation ability	no fluorescence expression		
FEEGQAQWDCVNPKYKQKRR (Dual functional candidate peptide for cell penetration and bone tissue regeneration) [SEQ ID NO: 3, peptide from copine 7 protein, position 331-350]	relatively excellent cell permeation efficiency			
FEEGQAQWDC (Dual functional candidate peptide for cell penetration and bone tissue regeneration) [SEQ ID NO: 2, peptide from copine 7 protein, position 331-340]		weak fluorescence		
CC(C)C[C@H](NC(=O)[C@@H](NC(=O)[C@@H](NC(=O)[C@@H](NC(=O)CNC(=O)[C@H](CO)NC(=O)[C@H](CC(N)=O)NC(=O)[C@H](CCCCN)NC(=O)[C@H](Cc1ccc(O)cc1)NC(=O)[C@@H](N)CO)C(C)C)C(C)C)C(C)C)C(N)=O [SEQ ID NO: 5, SYKNSGVVVL] (H-SYKNSGVVVL-NH2)			intracellularly toxic	
CC(C)C[C@H](NC(=O)[C@@H](NC(=O)[C@@H](NC(=O)[C@@H](NC(=O)CNC(=O)[C@H](CO)NC(=O)[C@H](CC(N)=O)NC(=O)[C@H](CCCCN)NC(=O)[C@H](Cc1ccc(O)cc1)NC(=O)[C@H](CO)NC(=O)[C@H](CCCNC(=N)N)NC(=O)[C@H](CCCNC(=N)N)NC(=O)[C@H](CCCCN)NC(=O)[C@H](CCC(N)=O)NC(=O)[C@H](CCCCN)NC(=O)[C@H](Cc1ccc(O)cc1)NC(=O)[C@H](CCCCN)NC(=O)[C@@H]1CCCN1C(=O)[C@H](CC(N)=O)NC(=O)[C@@H](N)C(C)C)C(C)C)C(C)C)C(C)C)C(N)=O [SEQ ID NO: 6] (H-VNPKYKQKRRSYKNSGVVVL-NH2)			intracellularly toxic	
